Experimental data from patent US11377442B2, “Small molecule agonists and antagonists of NR2F6 activity” (ZANDER THERAPEUTICS, INC., priority 2016, dated 2022).
Like-named read-outs stand apart in the source and are kept apart here.

Assays:
Format in all cases: cell-based
NR2F6 = molecular target: T1, NR2F6 (Homo sapiens, UniProt P10588); assay: NR2F6 agonist screening, Firefly signal cmpd/DMSO
T1 construct: expressed in transfected cells; also transient transfection
T1 sequence (P10588 1-404): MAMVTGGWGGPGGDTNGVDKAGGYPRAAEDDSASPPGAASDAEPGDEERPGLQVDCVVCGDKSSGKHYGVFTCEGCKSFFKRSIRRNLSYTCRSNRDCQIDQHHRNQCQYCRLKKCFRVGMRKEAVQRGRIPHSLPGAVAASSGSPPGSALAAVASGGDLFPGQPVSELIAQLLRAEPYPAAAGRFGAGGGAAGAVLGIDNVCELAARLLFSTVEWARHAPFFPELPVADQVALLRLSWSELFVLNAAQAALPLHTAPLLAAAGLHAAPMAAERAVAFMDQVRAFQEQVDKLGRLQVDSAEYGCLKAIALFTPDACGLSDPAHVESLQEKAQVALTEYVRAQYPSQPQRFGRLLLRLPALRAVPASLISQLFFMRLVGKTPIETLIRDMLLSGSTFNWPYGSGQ

Renilla = Renilla signal in NR2F6 agonist screening, cmpd/DMSO; conditions: Renilla, F4
HEK293 pGL4 = assay: Firefly_pGL signal, cmpd/DMSO (pGL4 control cells); conditions: Homo sapiens
NR2F6 LBD = molecular target: T2, NR2F6 LBD (Homo sapiens, UniProt P10588); assay: NR2F6 LBD transient transfection; conditions: LBD
T2 construct: expressed in transfected cells
T2 sequence (P10588 165-393 limits assumed): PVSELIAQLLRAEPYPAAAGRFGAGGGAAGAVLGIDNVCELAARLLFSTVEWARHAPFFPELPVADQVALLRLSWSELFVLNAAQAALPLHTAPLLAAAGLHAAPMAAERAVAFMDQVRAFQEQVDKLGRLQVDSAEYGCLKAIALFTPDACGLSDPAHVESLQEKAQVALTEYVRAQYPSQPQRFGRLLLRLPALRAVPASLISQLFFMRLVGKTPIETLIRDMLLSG
Procedure: FIGS. 27A and 27B show NR2F6 and LBD transient transfection, respectively, for Compound D28. Higher concentrations were excluded due to lower signal (tox effect). FIGS. 27C and 27D show NR2F6 and LBD transient transfection at different concentrations for different compounds. 9 compounds were tested on LBD transfected cells (40, 10, 2 and 0.5 μM, 4 replicates). FIGS. 27E and 27F show toxicity of Compound D28. 9 compounds were tested for cytotoxicity on LBD transfected cells (40, 10, 2 and 0.5 μM, 4 replicates). […] Cytotoxicity normalized to DMSO is shown in FIG. 27F (0% cytotoxicity corresponds to DMSO signal, 100%—zero signal).
FIGS. 34A and 34B show NR2F6 LBD transient transfection for Compound E21. 9 compounds were tested on LBD transfected cells (40, 10, 2 and 0.5 μM, 4 replicates). FIGS. 34C and 34D show NR2F6 and LBD transient transfection at different concentrations for different compounds. 9 compounds were tested on LBD transfected cells (40, 10, 2 and 0.5 μM, 4 replicates). […] Cytotoxicity normalized to DMSO is shown in FIG. 34D (0% cytotoxicity corresponds to DMSO signal, 100%—zero signal). All compounds were tested at 5, 10, 25 and 50 uM in duplicates. Dog PBMC (1×10^6 cells/mL) were activated by 10 ng/mL PMA+500 ng/mL ionomycin. Data were normalized to controls with (100%)/without (0%) PMA+ionomycin activation.
FIGS. 39A and 39B show NR2F6 LBD transient transfection for Compound F1. 9 compounds were tested on LBD transfected cells (40, 10, 2 and 0.5 μM, 4 replicates). FIGS. 39C and 39D show toxicity of NR2F6 LBD transient transfection. 9 compounds were tested for cytotoxicity on LBD transfected cells (40, 10, 2 and 0.5 μM, 4 replicates). Tox effect causes lower signal compared to DMSO. Cytotoxicity normalized to DMSO is shown in FIG. 39D (0% cytotoxicity corresponds to DMSO signal, 100%—zero signal).

[1] = read-out: Renilla, F4, cmpd/DMSO (mean)
[2] = 1% FBS, read-out: Renilla, F4, 1% FBS, cmpd/DMSO (mean)
[3] = 10% FBS, read-out: Renilla, F4, 10% FBS, cmpd/DMSO (mean)

- Firefly F4, cmpd/DMSO (mean) (NR2F6; 0.5 uM): 1.2
- Firefly F4, cmpd/DMSO (mean) (NR2F6; 2 uM): 1.9
- Firefly F4, cmpd/DMSO (mean) (NR2F6; 10 uM): 2.8
- Firefly F4, cmpd/DMSO (mean) (NR2F6; 40 uM): 2.6
- F4, Firefly/Renilla for S/B(F4) > 3 (NR2F6; 1% FBS, 40 uM): 1.6
- Firefly, F4/pGL4 for S/B(F4) > 3 (NR2F6; 1% FBS, 40 uM): 2.7
- F4, Firefly/Renilla for S/B(F4) > 3 (NR2F6; 10% FBS, 40 uM): 2.3
- Firefly, F4/pGL4 for S/B(F4) > 3 (NR2F6; 10% FBS, 40 uM): 3.7
- Firefly, F4, 1% FBS, cmpd/DMSO (mean) (NR2F6; 1% FBS, 0.5 uM): 1.1
- Firefly, F4, 1% FBS, cmpd/DMSO (mean) (NR2F6; 1% FBS, 2 uM): 0.9
- Firefly, F4, 1% FBS, cmpd/DMSO (mean) (NR2F6; 1% FBS, 10 uM): 1.6
- Firefly, F4, 1% FBS, cmpd/DMSO (mean) (NR2F6; 1% FBS, 40 uM): 3.2
- Firefly, F4, 10% FBS, cmpd/DMSO (mean) (NR2F6; 10% FBS, 0.5 uM): 1.2
- Firefly, F4, 10% FBS, cmpd/DMSO (mean) (NR2F6; 10% FBS, 2 uM): 1.2
- Firefly, F4, 10% FBS, cmpd/DMSO (mean) (NR2F6; 10% FBS, 10 uM): 1.5
- Firefly, F4, 10% FBS, cmpd/DMSO (mean) (NR2F6; 10% FBS, 40 uM): 5.0
- Firefly LBD, cmpd/DMSO (mean) (NR2F6 LBD; 0.5 uM): 1.1
- Firefly LBD, cmpd/DMSO (mean) (NR2F6 LBD; 2 uM): 1.2
- Firefly LBD, cmpd/DMSO (mean) (NR2F6 LBD; 10 uM): 1.8
- Firefly LBD, cmpd/DMSO (mean) (NR2F6 LBD; 40 uM): 1.9
Compound: C[C@@H]1C[C@H](C)CN([C@H]2CS(=O)(=O)C[C@@H]2S(=O)(=O)c2ccccc2)C1 [Compound D112]
- fold induction at 0.5 µM (Renilla; [1]): 1
- fold induction at 2 µM (Renilla; [1]): 1.1
- fold induction at 10 µM (Renilla; [1]): 1.3
- fold induction at 40 µM (Renilla; [1]): 1.6
- fold induction at 0.5 µM (Renilla; [2]): 1.1
- fold induction at 2 µM (Renilla; [2]): 1.1
- fold induction at 10 µM (Renilla; [2]): 1.4
- fold induction at 40 µM (Renilla; [2]): 2
- fold induction at 0.5 µM (Renilla; [3]): 1
- fold induction at 2 µM (Renilla; [3]): 1
- fold induction at 10 µM (Renilla; [3]): 1.3
- fold induction at 40 µM (Renilla; [3]): 2.1
- fold induction at 0.5 µM (HEK293 pGL4; HEK293, 0.5 uM, pGL4, read-out: Firefly pGL4, cmpd/DMSO (mean)): 1
- fold induction at 2 µM (HEK293 pGL4; HEK293, 2 uM, pGL4, read-out: Firefly pGL4, cmpd/DMSO (mean)): 1.2
- fold induction at 10 µM (HEK293 pGL4; HEK293, 10 uM, pGL4, read-out: Firefly pGL4, cmpd/DMSO (mean)): 2.2
- fold induction at 40 µM (HEK293 pGL4; HEK293, 40 uM, pGL4, read-out: Firefly pGL4, cmpd/DMSO (mean)): 2.2
- fold induction at 0.5 µM (HEK293 pGL4; HEK293, pGL4, 1% FBS, 0.5 uM, read-out: Firefly, pGL4, 1% FBS, cmpd/DMSO (mean)): 1.3
- fold induction at 2 µM (HEK293 pGL4; HEK293, pGL4, 1% FBS, 2 uM, read-out: Firefly, pGL4, 1% FBS, cmpd/DMSO (mean)): 1.2
- fold induction at 10 µM (HEK293 pGL4; HEK293, pGL4, 1% FBS, 10 uM, read-out: Firefly, pGL4, 1% FBS, cmpd/DMSO (mean)): 1.7
- fold induction at 40 µM (HEK293 pGL4; HEK293, pGL4, 1% FBS, 40 uM, read-out: Firefly, pGL4, 1% FBS, cmpd/DMSO (mean)): 1.2
- fold induction at 0.5 µM (HEK293 pGL4; HEK293, pGL4, 10% FBS, 0.5 uM, read-out: Firefly, pGL4, 10% FBS, cmpd/DMSO (mean)): 1.3
- fold induction at 2 µM (HEK293 pGL4; HEK293, pGL4, 10% FBS, 2 uM, read-out: Firefly, pGL4, 10% FBS, cmpd/DMSO (mean)): 1
- fold induction at 10 µM (HEK293 pGL4; HEK293, pGL4, 10% FBS, 10 uM, read-out: Firefly, pGL4, 10% FBS, cmpd/DMSO (mean)): 1.5
- fold induction at 40 µM (HEK293 pGL4; HEK293, pGL4, 10% FBS, 40 uM, read-out: Firefly, pGL4, 10% FBS, cmpd/DMSO (mean)): 1.3
